How the values were obtained:
Assay in all cases: radiometric filter-binding kinase assay, Kinase HotSpot
Details in all cases: compound 0.5 µM; ATP 10 µM
CSNK2A1 (human) = CSNK2A1 (human) (UniProt P68400)
KIT (human) = KIT (human) (UniProt P10721)
NTRK3 (human) = NTRK3 (human) (UniProt Q16288)
EPHB4 (human) = EPHB4 (human) (UniProt P54760)
CDK6 CCND1 (human) = CDK6 CCND1 (human) (UniProt Q00534+P24385)
DDR2 (human) = DDR2 (human) (UniProt Q16832)
EPHA1 (human) = EPHA1 (human) (UniProt P21709)
ERBB4 (human) = ERBB4 (human) (UniProt Q15303)
ERBB4 (human), sequence (Q15303 whole entry, looked up): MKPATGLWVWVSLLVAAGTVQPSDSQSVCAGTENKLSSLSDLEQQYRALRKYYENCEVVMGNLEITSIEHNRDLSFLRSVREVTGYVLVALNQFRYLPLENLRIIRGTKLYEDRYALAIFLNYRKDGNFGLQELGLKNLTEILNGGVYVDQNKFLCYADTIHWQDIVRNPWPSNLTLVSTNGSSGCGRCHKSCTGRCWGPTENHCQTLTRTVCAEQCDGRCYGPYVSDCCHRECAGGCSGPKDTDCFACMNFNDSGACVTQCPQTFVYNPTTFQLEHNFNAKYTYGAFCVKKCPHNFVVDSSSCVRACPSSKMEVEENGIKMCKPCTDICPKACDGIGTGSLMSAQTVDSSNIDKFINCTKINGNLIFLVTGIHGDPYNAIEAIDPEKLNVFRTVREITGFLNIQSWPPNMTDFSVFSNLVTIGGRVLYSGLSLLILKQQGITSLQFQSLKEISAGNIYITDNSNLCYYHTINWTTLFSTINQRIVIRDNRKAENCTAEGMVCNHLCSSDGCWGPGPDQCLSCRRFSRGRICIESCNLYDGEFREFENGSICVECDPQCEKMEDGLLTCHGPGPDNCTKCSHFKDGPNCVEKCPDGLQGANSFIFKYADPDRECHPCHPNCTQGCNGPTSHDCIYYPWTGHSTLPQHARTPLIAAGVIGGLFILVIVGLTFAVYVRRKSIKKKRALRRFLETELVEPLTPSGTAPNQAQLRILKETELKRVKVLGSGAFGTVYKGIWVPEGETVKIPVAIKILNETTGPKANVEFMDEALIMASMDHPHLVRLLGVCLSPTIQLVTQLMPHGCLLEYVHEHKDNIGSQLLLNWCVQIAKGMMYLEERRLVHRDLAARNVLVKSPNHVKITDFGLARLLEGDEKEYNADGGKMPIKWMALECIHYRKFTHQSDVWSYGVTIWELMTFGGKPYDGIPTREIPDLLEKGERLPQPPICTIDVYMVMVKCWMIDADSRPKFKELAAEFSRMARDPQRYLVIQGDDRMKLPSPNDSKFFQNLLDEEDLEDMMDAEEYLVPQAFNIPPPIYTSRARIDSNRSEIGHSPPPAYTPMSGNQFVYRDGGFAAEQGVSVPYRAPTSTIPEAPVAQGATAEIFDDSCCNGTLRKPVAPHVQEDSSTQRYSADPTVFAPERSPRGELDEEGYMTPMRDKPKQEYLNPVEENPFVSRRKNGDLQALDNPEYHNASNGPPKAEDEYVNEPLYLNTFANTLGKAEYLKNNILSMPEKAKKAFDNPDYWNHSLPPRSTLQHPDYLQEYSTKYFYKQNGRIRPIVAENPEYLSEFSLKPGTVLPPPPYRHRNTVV

PHKG2 (human) = PHKG2 (human) (UniProt P15735)
FGFR4 (human) = FGFR4 (human) (UniProt P22455)
PNCK (human) = PNCK (human) (UniProt Q6P2M8)
PLK1 (human) = PLK1 (human) (UniProt P53350)
PLK1 (human), sequence (P53350 whole entry, looked up): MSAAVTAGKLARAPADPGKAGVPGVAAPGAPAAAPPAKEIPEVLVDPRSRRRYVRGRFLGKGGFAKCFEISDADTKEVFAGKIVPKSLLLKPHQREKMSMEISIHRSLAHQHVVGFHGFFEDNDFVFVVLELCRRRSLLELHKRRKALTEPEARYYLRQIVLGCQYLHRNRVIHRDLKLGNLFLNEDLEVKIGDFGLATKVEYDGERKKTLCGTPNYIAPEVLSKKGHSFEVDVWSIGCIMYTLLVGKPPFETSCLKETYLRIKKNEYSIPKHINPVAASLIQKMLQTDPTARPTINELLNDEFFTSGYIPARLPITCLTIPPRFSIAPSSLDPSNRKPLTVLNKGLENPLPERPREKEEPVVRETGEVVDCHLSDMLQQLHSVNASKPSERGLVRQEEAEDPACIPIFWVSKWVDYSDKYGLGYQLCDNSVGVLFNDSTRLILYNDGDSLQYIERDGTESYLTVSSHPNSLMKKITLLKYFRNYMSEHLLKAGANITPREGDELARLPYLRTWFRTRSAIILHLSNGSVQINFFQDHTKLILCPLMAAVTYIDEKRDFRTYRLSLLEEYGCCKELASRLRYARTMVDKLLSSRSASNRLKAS

PRKCE (human) = PRKCE (human) (UniProt Q02156)
HIPK3 (human) = HIPK3 (human) (UniProt Q9H422)
ROS1 (human) = ROS1 (human) (UniProt P08922)
MLTK (human) = MLTK (human) (UniProt Q9NYL2)
NEK3 (human) = NEK3 (human) (UniProt P51956)
SYK (human) = SYK (human) (UniProt P43405)
MAPKAPK2 (human) = MAPKAPK2 (human) (UniProt P49137)
CLK3 (human) = CLK3 (human) (UniProt P49761)
JAK2 JH1 JH2 (human) = JAK2 JH1 JH2 (human) (UniProt O60674)
PRKCD (human) = PRKCD (human) (UniProt Q05655)
NLK (human) = NLK (human) (UniProt Q9UBE8)
PAK3 (human) = PAK3 (human) (UniProt O75914)
MAP3K8 (human) = MAP3K8 (human) (UniProt P41279)
BRSK2 (human) = BRSK2 (human) (UniProt Q8IWQ3)
MERTK (human) = MERTK (human) (UniProt Q12866)
MAPK1 (human) = MAPK1 (human) (UniProt P28482)
DYRK2 (human) = DYRK2 (human) (UniProt Q92630)
NEK11 (human) = NEK11 (human) (UniProt Q8NG66)
STK11 (human) = STK11 (human) (UniProt Q15831)
HIPK1 (human) = HIPK1 (human) (UniProt Q86Z02)
CAMK1G (human) = CAMK1G (human) (UniProt Q96NX5)
CSNK1D (human) = CSNK1D (human) (UniProt P48730)
CSNK1G1 (human) = CSNK1G1 (human) (UniProt Q9HCP0)
FGFR3 (human) = FGFR3 (human) (UniProt P22607)
FGFR3 (human), sequence (P22607 whole entry, looked up): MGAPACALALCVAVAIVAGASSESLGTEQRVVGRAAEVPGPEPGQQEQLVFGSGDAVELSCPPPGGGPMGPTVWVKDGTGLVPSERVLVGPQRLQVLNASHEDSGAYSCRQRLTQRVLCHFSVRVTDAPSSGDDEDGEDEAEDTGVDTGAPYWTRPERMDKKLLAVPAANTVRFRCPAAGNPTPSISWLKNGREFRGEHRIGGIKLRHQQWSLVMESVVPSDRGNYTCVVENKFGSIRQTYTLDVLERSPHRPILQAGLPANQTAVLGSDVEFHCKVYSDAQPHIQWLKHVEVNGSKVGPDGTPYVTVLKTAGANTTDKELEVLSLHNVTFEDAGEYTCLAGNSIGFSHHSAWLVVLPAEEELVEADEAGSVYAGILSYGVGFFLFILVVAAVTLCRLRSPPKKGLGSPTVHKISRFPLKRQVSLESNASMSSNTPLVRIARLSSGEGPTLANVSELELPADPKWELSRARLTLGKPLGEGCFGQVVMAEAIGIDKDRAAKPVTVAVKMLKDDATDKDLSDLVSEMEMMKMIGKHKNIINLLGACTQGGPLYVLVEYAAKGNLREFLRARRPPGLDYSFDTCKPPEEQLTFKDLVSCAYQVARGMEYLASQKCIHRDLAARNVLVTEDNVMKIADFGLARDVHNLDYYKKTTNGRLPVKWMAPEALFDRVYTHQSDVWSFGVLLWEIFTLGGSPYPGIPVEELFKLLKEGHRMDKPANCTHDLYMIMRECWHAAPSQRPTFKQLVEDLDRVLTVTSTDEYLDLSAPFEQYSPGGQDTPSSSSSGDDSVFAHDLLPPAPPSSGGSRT

DSTYK (human) = DSTYK (human) (UniProt Q6XUX3)
PAK6 (human) = PAK6 (human) (UniProt Q9NQU5)
PAK6 (human), sequence (Q9NQU5 whole entry, looked up): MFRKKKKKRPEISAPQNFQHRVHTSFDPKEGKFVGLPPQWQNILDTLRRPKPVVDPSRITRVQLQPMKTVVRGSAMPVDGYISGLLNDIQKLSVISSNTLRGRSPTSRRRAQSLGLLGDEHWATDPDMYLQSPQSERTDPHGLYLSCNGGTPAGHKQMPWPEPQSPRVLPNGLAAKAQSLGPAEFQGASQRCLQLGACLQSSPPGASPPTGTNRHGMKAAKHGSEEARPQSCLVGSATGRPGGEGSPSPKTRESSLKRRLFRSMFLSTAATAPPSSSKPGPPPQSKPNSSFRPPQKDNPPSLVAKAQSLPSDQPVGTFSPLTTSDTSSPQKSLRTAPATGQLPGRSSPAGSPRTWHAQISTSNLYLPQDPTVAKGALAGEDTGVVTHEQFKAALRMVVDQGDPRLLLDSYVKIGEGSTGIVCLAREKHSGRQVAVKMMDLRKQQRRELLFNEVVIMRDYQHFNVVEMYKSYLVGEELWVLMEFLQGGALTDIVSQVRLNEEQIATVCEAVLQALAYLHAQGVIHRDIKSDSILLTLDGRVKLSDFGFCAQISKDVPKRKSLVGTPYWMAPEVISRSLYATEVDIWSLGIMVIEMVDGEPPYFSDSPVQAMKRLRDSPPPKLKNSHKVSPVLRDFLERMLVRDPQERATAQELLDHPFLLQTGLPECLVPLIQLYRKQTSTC

TAOK2 (human) = TAOK2 (human) (UniProt Q9UL54)
YES1 (human) = YES1 (human) (UniProt P07947)
CSNK1E (human) = CSNK1E (human) (UniProt P49674)
MST4 (human) = MST4 (human) (UniProt Q9P289)

EPHA1 (human), sequence (P21709 whole entry, looked up): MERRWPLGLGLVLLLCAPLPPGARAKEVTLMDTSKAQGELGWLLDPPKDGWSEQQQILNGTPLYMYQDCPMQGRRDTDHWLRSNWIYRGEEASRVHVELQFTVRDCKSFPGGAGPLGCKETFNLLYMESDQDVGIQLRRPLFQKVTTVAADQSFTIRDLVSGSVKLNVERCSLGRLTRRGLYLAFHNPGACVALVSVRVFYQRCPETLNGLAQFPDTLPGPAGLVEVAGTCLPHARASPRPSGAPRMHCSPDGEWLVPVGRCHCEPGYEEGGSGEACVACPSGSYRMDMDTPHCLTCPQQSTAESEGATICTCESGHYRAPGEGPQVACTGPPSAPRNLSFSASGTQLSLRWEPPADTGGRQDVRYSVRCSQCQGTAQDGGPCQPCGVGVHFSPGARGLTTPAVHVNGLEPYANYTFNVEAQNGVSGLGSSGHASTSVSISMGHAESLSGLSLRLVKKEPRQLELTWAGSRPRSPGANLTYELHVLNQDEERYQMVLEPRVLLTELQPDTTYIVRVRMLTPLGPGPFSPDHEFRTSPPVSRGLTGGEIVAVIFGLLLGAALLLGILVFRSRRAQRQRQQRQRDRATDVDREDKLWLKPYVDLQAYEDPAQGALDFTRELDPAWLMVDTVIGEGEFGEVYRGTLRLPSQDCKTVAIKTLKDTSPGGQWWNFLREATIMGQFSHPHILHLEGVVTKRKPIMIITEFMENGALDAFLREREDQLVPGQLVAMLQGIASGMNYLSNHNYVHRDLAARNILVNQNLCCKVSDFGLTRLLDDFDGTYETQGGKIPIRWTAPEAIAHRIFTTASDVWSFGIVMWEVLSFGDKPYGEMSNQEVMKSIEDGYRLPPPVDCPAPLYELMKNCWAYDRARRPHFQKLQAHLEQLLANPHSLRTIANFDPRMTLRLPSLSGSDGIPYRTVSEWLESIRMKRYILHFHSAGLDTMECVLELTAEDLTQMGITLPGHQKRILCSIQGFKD
CDK6 CCND1 (human), sequence (P24385 whole entry, looked up): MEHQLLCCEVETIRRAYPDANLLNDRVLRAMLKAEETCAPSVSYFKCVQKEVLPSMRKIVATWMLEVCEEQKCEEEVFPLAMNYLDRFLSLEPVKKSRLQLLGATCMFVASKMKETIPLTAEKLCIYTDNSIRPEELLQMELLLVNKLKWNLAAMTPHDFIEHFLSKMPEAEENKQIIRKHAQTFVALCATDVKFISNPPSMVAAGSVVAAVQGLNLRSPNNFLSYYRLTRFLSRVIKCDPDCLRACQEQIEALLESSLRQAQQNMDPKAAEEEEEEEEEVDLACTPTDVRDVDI
CDK6 CCND1 (human), sequence (Q00534 whole entry, looked up): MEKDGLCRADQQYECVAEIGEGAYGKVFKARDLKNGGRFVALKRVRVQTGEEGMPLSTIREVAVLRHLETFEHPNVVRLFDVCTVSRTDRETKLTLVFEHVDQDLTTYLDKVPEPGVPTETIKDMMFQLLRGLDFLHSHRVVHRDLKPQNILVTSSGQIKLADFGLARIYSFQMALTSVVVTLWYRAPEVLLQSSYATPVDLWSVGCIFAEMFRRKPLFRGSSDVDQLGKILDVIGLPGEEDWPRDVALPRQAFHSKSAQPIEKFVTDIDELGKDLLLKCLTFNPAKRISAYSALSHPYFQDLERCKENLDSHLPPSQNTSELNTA

Work on `Cn1cc(/C=C2\C(=O)Nc3ccc(S(N)(=O)=O)cc32)c2ccccc21` yielded a residual activity (CSNK2A1 (human)) of 84.7%, a residual activity (KIT (human)) of 68.2% and a residual activity (NTRK3 (human)) of 1.18%. For the same compound, the residual activity (EPHB4 (human)) was 57.4%, the residual activity (CDK6 CCND1 (human)) was 82.4% and the residual activity (DDR2 (human)) was 100%. The residual activity (EPHA1 (human)) was 101%, the residual activity (ERBB4 (human)) was 81.3% and the residual activity (PHKG2 (human)) was 52%. The residual activity (FGFR4 (human)) was 74.1%, the residual activity (PNCK (human)) was 58.1% and the residual activity (PLK1 (human)) was 92.1%. The residual activity (PRKCE (human)) was 77.3%, the residual activity (HIPK3 (human)) was 105% and the residual activity (ROS1 (human)) was 82.2%. For the same compound, the residual activity (MLTK (human)) was 95%, the residual activity (NEK3 (human)) was 66.2% and the residual activity (SYK (human)) was 16.5%. The residual activity (MAPKAPK2 (human)) was 101%, the residual activity (CLK3 (human)) was 81.4% and the residual activity (JAK2 JH1 JH2 (human)) was 58.4%. The residual activity (PRKCD (human)) was 91.3%, the residual activity (NLK (human)) was 90.4% and the residual activity (PAK3 (human)) was 93.8%. It also gave a residual activity (MAP3K8 (human)) of 96.8%, a residual activity (BRSK2 (human)) of 65.5% and a residual activity (MERTK (human)) of 45.9%. The residual activity (MAPK1 (human)) was 98.2%, the residual activity (DYRK2 (human)) was 85.5% and the residual activity (NEK11 (human)) was 96.1%. The residual activity (STK11 (human)) was 68.2%, the residual activity (HIPK1 (human)) was 97.2% and the residual activity (CAMK1G (human)) was 89.2%. It also gave a residual activity (CSNK1D (human)) of 102%, a residual activity (CSNK1G1 (human)) of 88.3% and a residual activity (FGFR3 (human)) of 33.8%. For the same compound, the residual activity (DSTYK (human)) was 92.5%, the residual activity (PAK6 (human)) was 90.1% and the residual activity (TAOK2 (human)) was 86.4%. It also gave a residual activity (YES1 (human)) of 24.2%, a residual activity (CSNK1E (human)) of 89% and a residual activity (MST4 (human)) of 101%.
Compound `O=C1NC(=O)c2cc(Nc3ccc(F)cc3)c(Nc3ccc(F)cc3)cc21` has a residual activity (CSNK2A1 (human)) of 95.7%, a residual activity (KIT (human)) of 97.2% and a residual activity (NTRK3 (human)) of 95.6%. For the same compound, the residual activity (EPHB4 (human)) was 108%, the residual activity (CDK6 CCND1 (human)) was 99% and the residual activity (DDR2 (human)) was 99.6%. The residual activity (EPHA1 (human)) was 97.4%, the residual activity (ERBB4 (human)) was 99.4% and the residual activity (PHKG2 (human)) was 97.1%. It also gave a residual activity (FGFR4 (human)) of 95.5%, a residual activity (PNCK (human)) of 97.3% and a residual activity (PLK1 (human)) of 99.9%. The residual activity (PRKCE (human)) was 97.8%, the residual activity (HIPK3 (human)) was 95.3% and the residual activity (ROS1 (human)) was 92%. For the same compound, the residual activity (MLTK (human)) was 94.5%, the residual activity (NEK3 (human)) was 99.1% and the residual activity (SYK (human)) was 98.8%. For the same compound, the residual activity (MAPKAPK2 (human)) was 95.7%, the residual activity (CLK3 (human)) was 93.7% and the residual activity (JAK2 JH1 JH2 (human)) was 94.6%. It also gave a residual activity (PRKCD (human)) of 98.2%, a residual activity (NLK (human)) of 103% and a residual activity (PAK3 (human)) of 99.4%. It also gave a residual activity (MAP3K8 (human)) of 96.3%, a residual activity (BRSK2 (human)) of 96.8% and a residual activity (MERTK (human)) of 97.4%. The residual activity (MAPK1 (human)) was 121%, the residual activity (DYRK2 (human)) was 89.1% and the residual activity (NEK11 (human)) was 103%. It also gave a residual activity (STK11 (human)) of 98.2%, a residual activity (HIPK1 (human)) of 102% and a residual activity (CAMK1G (human)) of 106%. For the same compound, the residual activity (CSNK1D (human)) was 109%, the residual activity (CSNK1G1 (human)) was 96.3% and the residual activity (FGFR3 (human)) was 99.7%. The residual activity (DSTYK (human)) was 95.6%, the residual activity (PAK6 (human)) was 106% and the residual activity (TAOK2 (human)) was 94.7%. It also gave a residual activity (YES1 (human)) of 86.6%, a residual activity (CSNK1E (human)) of 98% and a residual activity (MST4 (human)) of 99%.
`FC(F)(F)c1ccc(/C=C/c2nc(COc3ccc(CCCCn4ccnn4)cc3)co2)cc1` gave a residual activity (CSNK2A1 (human)) of 97.5%, a residual activity (KIT (human)) of 98.8% and a residual activity (NTRK3 (human)) of 98.9%. It also gave a residual activity (EPHB4 (human)) of 92.2%, a residual activity (CDK6 CCND1 (human)) of 95.4% and a residual activity (DDR2 (human)) of 101%. For the same compound, the residual activity (EPHA1 (human)) was 97.2%, the residual activity (ERBB4 (human)) was 99.6% and the residual activity (PHKG2 (human)) was 93.5%. It also gave a residual activity (FGFR4 (human)) of 88.3%, a residual activity (PNCK (human)) of 96.6% and a residual activity (PLK1 (human)) of 98.3%. It also gave a residual activity (PRKCE (human)) of 101%, a residual activity (HIPK3 (human)) of 100% and a residual activity (ROS1 (human)) of 93.3%. It also gave a residual activity (MLTK (human)) of 98.5%, a residual activity (NEK3 (human)) of 100% and a residual activity (SYK (human)) of 97.4%. The residual activity (MAPKAPK2 (human)) was 97.9%, the residual activity (CLK3 (human)) was 92.2% and the residual activity (JAK2 JH1 JH2 (human)) was 98.9%. For the same compound, the residual activity (PRKCD (human)) was 99.6%, the residual activity (NLK (human)) was 101% and the residual activity (PAK3 (human)) was 101%. For the same compound, the residual activity (MAP3K8 (human)) was 90.8%, the residual activity (BRSK2 (human)) was 99.6% and the residual activity (MERTK (human)) was 97.9%. For the same compound, the residual activity (MAPK1 (human)) was 88.6%, the residual activity (DYRK2 (human)) was 110% and the residual activity (NEK11 (human)) was 97.6%. For the same compound, the residual activity (STK11 (human)) was 104%, the residual activity (HIPK1 (human)) was 101% and the residual activity (CAMK1G (human)) was 95%. The residual activity (CSNK1D (human)) was 96.6%, the residual activity (CSNK1G1 (human)) was 100% and the residual activity (FGFR3 (human)) was 88.4%. It also gave a residual activity (DSTYK (human)) of 88.8%, a residual activity (PAK6 (human)) of 100% and a residual activity (TAOK2 (human)) of 105%. It also gave a residual activity (YES1 (human)) of 85%, a residual activity (CSNK1E (human)) of 95.5% and a residual activity (MST4 (human)) of 98%.
For `O=C(O)c1ccc2c3c1cccc3c(=O)n1c3ccccc3nc21`, the residual activity (CSNK2A1 (human)) was 28.3%, the residual activity (KIT (human)) was 93.5% and the residual activity (NTRK3 (human)) was 67.1%. For the same compound, the residual activity (EPHB4 (human)) was 90.6%, the residual activity (CDK6 CCND1 (human)) was 90.6% and the residual activity (DDR2 (human)) was 96.8%. For the same compound, the residual activity (EPHA1 (human)) was 95.3%, the residual activity (ERBB4 (human)) was 105% and the residual activity (PHKG2 (human)) was 94.7%. The residual activity (FGFR4 (human)) was 88.6%, the residual activity (PNCK (human)) was 101% and the residual activity (PLK1 (human)) was 110%. For the same compound, the residual activity (PRKCE (human)) was 113%, the residual activity (HIPK3 (human)) was 103% and the residual activity (ROS1 (human)) was 95.2%. The residual activity (MLTK (human)) was 100%, the residual activity (NEK3 (human)) was 91.8% and the residual activity (SYK (human)) was 96%. It also gave a residual activity (MAPKAPK2 (human)) of 102%, a residual activity (CLK3 (human)) of 95.4% and a residual activity (JAK2 JH1 JH2 (human)) of 86.7%. It also gave a residual activity (PRKCD (human)) of 103%, a residual activity (NLK (human)) of 96.1% and a residual activity (PAK3 (human)) of 97.6%. It also gave a residual activity (MAP3K8 (human)) of 88.3%, a residual activity (BRSK2 (human)) of 90.4% and a residual activity (MERTK (human)) of 77.7%. For the same compound, the residual activity (MAPK1 (human)) was 100%, the residual activity (DYRK2 (human)) was 50.7% and the residual activity (NEK11 (human)) was 83%. It also gave a residual activity (STK11 (human)) of 96.6%, a residual activity (HIPK1 (human)) of 104% and a residual activity (CAMK1G (human)) of 99%. It also gave a residual activity (CSNK1D (human)) of 101%, a residual activity (CSNK1G1 (human)) of 99.5% and a residual activity (FGFR3 (human)) of 92.9%. The residual activity (DSTYK (human)) was 103%, the residual activity (PAK6 (human)) was 103% and the residual activity (TAOK2 (human)) was 95.2%. The residual activity (YES1 (human)) was 96.6%, the residual activity (CSNK1E (human)) was 96% and the residual activity (MST4 (human)) was 97.8%.

Source: the kinase profiling compilation of Christmann-Franck et al. (2016)
